US11547663B2, “Unit aerosol doses for anticoagulation” (InCarda Therapeutics, Inc., priority 2015, dated 2023)
Read-outs that look alike come from different tables or passages of the source.

Columns and labels:
[1] = system: intrinsic pathway; assay: Activated clotting time (ACT) in dog blood after IV or IT anticoagulant; type: in vivo; details: for ACT LA: Left Atrium
Protocol: To assess the efficacy of anticoagulants delivered via intratracheal (IT) inhalation, four different anticoagulants were tested in a dog study. PK as well as biomarkers of blood in the Left Atrium (LA) and Coronary Sinus (CS) were monitored. These locations were chosen as these are the sites whereby clot formation occurs that leads to Myocardial Infarction or results in stroke. These drugs and doses were selected to represent a wide spectrum of anticoagulant classes. One anticoagulant was tested in one dog on each arm of this study. Activated clotting time (ACT), measures the time in seconds needed for whole blood to clot upon exposure to an activator of an intrinsic pathway by the addition of such as factor XII activators. Measurements were performed in the blood collected from Left Atrium (LA) and in the Coronary sinus (CS)—the targets for stroke prevention and Myocardial Infarction (MI), respectively.

[2] = system: extrinsic system; assay: Prothrombin Time (PT) in dog blood after IV or IT anticoagulant; type: in vivo; details: for PTCS: Coronary Sinus; for PT LA: Left Atrium
Protocol: (§1) To assess the efficacy of anticoagulants delivered via intratracheal (IT) inhalation, four different anticoagulants were tested in a dog study.
(§2) PK as well as biomarkers of blood in the Left Atrium (LA) and Coronary Sinus (CS) were monitored. These locations were chosen as these are the sites whereby clot formation occurs that leads to Myocardial Infarction or results in stroke.
(§3) These drugs and doses were selected to represent a wide spectrum of anticoagulant classes. One anticoagulant was tested in one dog on each arm of this study.
(§4) Factor Xa inhibition; Prothrombin Time (PT): measures the integrity of the extrinsic system as well as factors common to both systems; and Activated Partial Thromboplastin Time (aPTT or PTT): measures the integrity of the intrinsic system and the common components and factor-Xa inhibition.
(§5) Measurements were performed in the blood collected from Left Atrium (LA) and in the Coronary sinus (CS)—the targets for stroke prevention and Myocardial Infarction (MI), respectively.

[3] = system: intrinsic system; assay: Activated Partial Thromboplastin Time (aPTT or PTT) in dog blood after IV or IT anticoagulant; type: in vivo; details: for PTTCS: Coronary Sinus; for PTT LA: Left Atrium
Protocol: as §1, §2, §3, §4, §5

[4] = Dog study summary: effect of inhaled anticoagulant on tested biomarkers; type: in vivo; details: inhaled (IT)
Protocol: as §1, §2, §3
The standard laboratory tests commonly used to evaluate the efficacy of anticoagulants are the following:
The first test, ACT, was the key in the management of ACS. The latter three tests provided information regarding the prevention of clot formation and growth of an existing clot. The table below summarizes the measurements performed for each anticoagulant in the study.

[5] = cited from earlier work
[6] = IT Bivalirudin 2 mg/kg, 0 min (baseline)
[7] = IT Bivalirudin 8 mg/kg, 0 min (baseline)
[8] = IV Bivalirudin 2 mg/kg, 0 min (baseline)

In the case of Bivalirudin, the “effect on ACT” value ([1]; IT (inhaled)) is reported as “NO effect”, the “effect on ACT” value ([1]; IT (inhaled), listed as bivalirudin) is reported as “no prolongation” and the “ACT LA” value [1, 6] is reported as 90 s. The “ACT LA” value ([1]; IT Bivalirudin 2 mg/kg, 1 min) was 95 s, the “ACT LA” value ([1]; IT Bivalirudin 2 mg/kg, 3 min) was 95 s and the “ACT LA” value ([1]; IT Bivalirudin 2 mg/kg, 5 min) was 101 s. For the same substance, the “ACT LA” value ([1]; IT Bivalirudin 2 mg/kg, 10 min) was 101 s, the “ACT LA” value ([1]; IT Bivalirudin 2 mg/kg, 15 min) was 95 s and the “ACT LA” value ([1]; IT Bivalirudin 2 mg/kg, 30 min) was 95 s. For the same substance, the “ACT LA” value ([1]; IT Bivalirudin 2 mg/kg, 60 min) was 95 s, the “ACT LA” value [1, 7] was 78 s and the “ACT LA” value ([1]; IT Bivalirudin 8 mg/kg, 1 min) was 95 s. For the same substance, the “ACT LA” value ([1]; IT Bivalirudin 8 mg/kg, 3 min) was 89 s, the “ACT LA” value ([1]; IT Bivalirudin 8 mg/kg, 5 min) was 90 s and the “ACT LA” value ([1]; IT Bivalirudin 8 mg/kg, 10 min) was 89 s. The “ACT LA” value ([1]; IT Bivalirudin 8 mg/kg, 15 min) was 90 s, the “ACT LA” value ([1]; IT Bivalirudin 8 mg/kg, 30 min) was 90 s and the “ACT LA” value ([1]; IT Bivalirudin 8 mg/kg, 60 min) was 89 s. The “effect on ACT” value ([1]; IV) was “prolonged”, the “ACT LA” value [1, 8] was 106 s and the “ACT LA” value ([1]; IV Bivalirudin 2 mg/kg, 1 min) was 242 s. The “ACT LA” value ([1]; IV Bivalirudin 2 mg/kg, 3 min) was 214 s, the “ACT LA” value ([1]; IV Bivalirudin 2 mg/kg, 5 min) was 203 s and the “ACT LA” value ([1]; IV Bivalirudin 2 mg/kg, 10 min) was 174 s. For the same substance, the “ACT LA” value ([1]; IV Bivalirudin 2 mg/kg, 15 min) was 168 s, the “ACT LA” value ([1]; IV Bivalirudin 2 mg/kg, 30 min) was 135 s and the “ACT LA” value ([1]; IV Bivalirudin 2 mg/kg, 60 min) was 106 s. The “effect on PT” value ([2]; IT (inhaled)) was “NO effect”, the “PTCS” value [2, 6] was 6.75 s and the “PTCS” value ([2]; IT Bivalirudin 2 mg/kg, 3 min) was 5.45 s. The “PTCS” value ([2]; IT Bivalirudin 2 mg/kg, 15 min) was 9.3 s, the “PTCS” value ([2]; IT Bivalirudin 2 mg/kg, 60 min) was 6.3 s and the “PT LA” value [2, 6] was 6.1 s. For the same substance, the “PT LA” value ([2]; IT Bivalirudin 2 mg/kg, 1 min) was 6 s, the “PT LA” value ([2]; IT Bivalirudin 2 mg/kg, 3 min) was 5.4 s and the “PT LA” value ([2]; IT Bivalirudin 2 mg/kg, 5 min) was 5.8 s. The “PT LA” value ([2]; IT Bivalirudin 2 mg/kg, 10 min) was 6.2 s, the “PT LA” value ([2]; IT Bivalirudin 2 mg/kg, 15 min) was 5.7 s and the “PT LA” value ([2]; IT Bivalirudin 2 mg/kg, 30 min) was 5.8 s. For the same substance, the “PT LA” value ([2]; IT Bivalirudin 2 mg/kg, 60 min) was 7.2 s, the “PTCS” value [2, 7] was 6.5 s and the “PTCS” value ([2]; IT Bivalirudin 8 mg/kg, 3 min) was 5.5 s. The “PTCS” value ([2]; IT Bivalirudin 8 mg/kg, 15 min) was 7 s, the “PTCS” value ([2]; IT Bivalirudin 8 mg/kg, 60 min) was 5.5 s and the “PT LA” value [2, 7] was 6.4 s. For the same substance, the “PT LA” value ([2]; IT Bivalirudin 8 mg/kg, 1 min) was 6.1 s, the “PT LA” value ([2]; IT Bivalirudin 8 mg/kg, 3 min) was 6.9 s and the “PT LA” value ([2]; IT Bivalirudin 8 mg/kg, 5 min) was 6.3 s. For the same substance, the “PT LA” value ([2]; IT Bivalirudin 8 mg/kg, 10 min) was 7 s, the “PT LA” value ([2]; IT Bivalirudin 8 mg/kg, 15 min) was 6.7 s and the “PT LA” value ([2]; IT Bivalirudin 8 mg/kg, 30 min) was 6.6 s. The “PT LA” value ([2]; IT Bivalirudin 8 mg/kg, 60 min) was 5.9 s, the “effect on PT” value ([2]; IV) was “prolonged” and the “PTCS” value [2, 8] was 5.8 s. The “PTCS” value ([2]; IV Bivalirudin 2 mg/kg, 3 min) was 25 s, the “PTCS” value ([2]; IV Bivalirudin 2 mg/kg, 15 min) was 17.2 s and the “PTCS” value ([2]; IV Bivalirudin 2 mg/kg, 60 min) was 6 s. For the same substance, the “PT LA” value [2, 8] was 5.8 s, the “PT LA” value ([2]; IV Bivalirudin 2 mg/kg, 1 min) was 34.6 s and the “PT LA” value ([2]; IV Bivalirudin 2 mg/kg, 3 min) was 28.8 s. The “PT LA” value ([2]; IV Bivalirudin 2 mg/kg, 5 min) was 20.8 s, the “PT LA” value ([2]; IV Bivalirudin 2 mg/kg, 10 min) was 17.4 s and the “PT LA” value ([2]; IV Bivalirudin 2 mg/kg, 15 min) was 12.1 s. The “PT LA” value ([2]; IV Bivalirudin 2 mg/kg, 30 min) was 7.6 s, the “PT LA” value ([2]; IV Bivalirudin 2 mg/kg, 60 min) was 6.4 s and the “effect on aPTT” value ([3]; IT (inhaled)) was “NO effect”. The “PTTCS” value [3, 6] was 8.4 s, the “PTTCS” value ([3]; IT Bivalirudin 2 mg/kg, 3 min) was 120 s and the “PTTCS” value ([3]; IT Bivalirudin 2 mg/kg, 15 min) was 120 s. The “PTTCS” value ([3]; IT Bivalirudin 2 mg/kg, 60 min) was 10.7 s, the “PTT LA” value [3, 6] was 8.4 s and the “PTT LA” value ([3]; IT Bivalirudin 2 mg/kg, 1 min) was 8.3 s. For the same substance, the “PTT LA” value ([3]; IT Bivalirudin 2 mg/kg, 3 min) was 9.1 s, the “PTT LA” value ([3]; IT Bivalirudin 2 mg/kg, 5 min) was 8.8 s and the “PTT LA” value ([3]; IT Bivalirudin 2 mg/kg, 10 min) was 11.5 s. The “PTT LA” value ([3]; IT Bivalirudin 2 mg/kg, 15 min) was 9.4 s, the “PTT LA” value ([3]; IT Bivalirudin 2 mg/kg, 30 min) was 8.2 s and the “PTT LA” value ([3]; IT Bivalirudin 2 mg/kg, 60 min) was 11.9 s. For the same substance, the “PTTCS” value [3, 7] was 12.5 s, the “PTTCS” value ([3]; IT Bivalirudin 8 mg/kg, 3 min) was 8.1 s and the “PTTCS” value ([3]; IT Bivalirudin 8 mg/kg, 15 min) was 120 s. For the same substance, the “PTTCS” value ([3]; IT Bivalirudin 8 mg/kg, 60 min) was 21.3 s, the “PTT LA” value [3, 7] was 10.3 s and the “PTT LA” value ([3]; IT Bivalirudin 8 mg/kg, 1 min) was 8.4 s. The “PTT LA” value ([3]; IT Bivalirudin 8 mg/kg, 3 min) was 11.9 s, the “PTT LA” value ([3]; IT Bivalirudin 8 mg/kg, 5 min) was 11.3 s and the “PTT LA” value ([3]; IT Bivalirudin 8 mg/kg, 10 min) was 9.5 s. For the same substance, the “PTT LA” value ([3]; IT Bivalirudin 8 mg/kg, 15 min) was 9.6 s, the “PTT LA” value ([3]; IT Bivalirudin 8 mg/kg, 30 min) was 9.9 s and the “PTT LA” value ([3]; IT Bivalirudin 8 mg/kg, 60 min) was 13 s. The “effect on aPTT” value ([3]; IV) was “prolonged”, the “PTTCS” value [3, 8] was 10.6 s and the “PTTCS” value ([3]; IV Bivalirudin 2 mg/kg, 3 min) was 35.1 s. For the same substance, the “PTTCS” value ([3]; IV Bivalirudin 2 mg/kg, 15 min) was 120 s, the “PTTCS” value ([3]; IV Bivalirudin 2 mg/kg, 60 min) was 120 s and the “PTT LA” value [3, 8] was 9.7 s. For the same substance, the “PTT LA” value ([3]; IV Bivalirudin 2 mg/kg, 1 min) was 42.4 s, the “PTT LA” value ([3]; IV Bivalirudin 2 mg/kg, 3 min) was 36 s and the “PTT LA” value ([3]; IV Bivalirudin 2 mg/kg, 5 min) was 26.3 s. For the same substance, the “PTT LA” value ([3]; IV Bivalirudin 2 mg/kg, 10 min) was 23.8 s, the “PTT LA” value ([3]; IV Bivalirudin 2 mg/kg, 15 min) was 19.1 s and the “PTT LA” value ([3]; IV Bivalirudin 2 mg/kg, 30 min) was 15.7 s. For the same substance, the “PTT LA” value ([3]; IV Bivalirudin 2 mg/kg, 60 min) was 11 s, the “effect of inhaled drug on tested biomarkers (summary)” value [4] was “showed NO” and the half-life ([5]; as stated in b199) was 1 to 2 h. For the same substance, the half-life ([5]; as stated in b211) was 2 to 4 h.
